Data reported in publication PMC6956158, “In Vitro and In Vivo Assessment of Metabolic Drug Interaction Potential of Dutasteride with Ketoconazole” (Pharmaceutics, 2019).

Legend:
Format in all cases: in vitro ADME
[1] = Unbound fraction by rapid equilibrium dialysis, rat plasma
Experimental: To investigate the metabolic interaction potential between DUT and KET, the disappearance of DUT (5 μM) in RLM and HLM was determined under the absence and presence of KET at various concentrations ranging from 1 to 5000 nM. A microsomal reaction mixture was prepared as follows (total volume: 0.2 mL): 1 mM NADPH, 10 mM MgCl2, substrate (DUT), and inhibitor (KET), RLM or HLM (1 mg/mL), and 50 mM phosphate buffer. At 0 and 90 min after starting the metabolic reaction, a 50 μL aliquot of microsomal incubation mixture was sampled and immediately transferred into a clean 1.5 mL microcentrifuge tube containing 100 μL cold ACN with an internal standard (celecoxib at 400 ng/mL) to stop the metabolic reaction. After vortex mixing and centrifugation at 15,000× g for 10 min, a 100 μL aliquot of the supernatant was stored at −80 °C. The unbound fractions of DUT in rat plasma, RLM, human plasma, and HLM were measured using a rapid equilibrium dialysis (RED) device (Thermo Fisher Scientific, Inc., Waltham, MA, USA) as described in a previous study. […] The fraction unbound was calculated as the ratio of the drug concentrations in the “buffer” chamber to those in the “sample” chamber. The blood-to-plasma concentration ratio (RB) of DUT was determined as described previously. […] The concentrations of DUT in the plasma sample were determined by the validated HPLC analysis.

[2] = NADPH-dependent metabolism (disappearance) of DUT in human liver microsomes; settings: HLM
Experimental: In vitro metabolism studies in RLM and HLM were conducted as previously reported with slight modifications. To investigate the NADPH-dependent metabolism (via phase I enzymes including CYPs) of DUT in RLM and HLM, the disappearance of DUT at various concentrations ranging from 1 to 100 μM in the presence of NADPH was determined in RLM and HLM. The substrate (DUT) concentration ([S]; μM) versus the initial metabolic rate (V; pmol/min/mg protein) data were interpreted based on the Michaelis–Menten kinetics, and relevant parameters were estimated by nonlinear regression analysis (GraphPad Prism ver. 5.01; GraphPad Software, San Diego, CA, USA) based on the following Michaelis–Menten equation: V = Vmax × [S]/Km + [S] where Vmax and Km are the maximal metabolic rate and Michaelis–Menten constant, respectively. The intrinsic metabolic clearance (CLint) was calculated by dividing Vmax by Km. The unbound Km (Km,u) was calculated as the Km multiplied by the unbound fraction in microsomes (fu,mic). The unbound CLint (CLint,u) was calculated as the CLint divided by the fu,mic.
To investigate the metabolic interaction potential between DUT and KET, the disappearance of DUT (5 μM) in RLM and HLM was determined under the absence and presence of KET at various concentrations ranging from 1 to 5000 nM. A microsomal reaction mixture was prepared as follows (total volume: 0.2 mL): 1 mM NADPH, 10 mM MgCl2, substrate (DUT), and inhibitor (KET), RLM or HLM (1 mg/mL), and 50 mM phosphate buffer. […] The unbound fractions of DUT in rat plasma, RLM, human plasma, and HLM were measured using a rapid equilibrium dialysis (RED) device (Thermo Fisher Scientific, Inc., Waltham, MA, USA) as described in a previous study. […] The fraction unbound was calculated as the ratio of the drug concentrations in the “buffer” chamber to those in the “sample” chamber. The blood-to-plasma concentration ratio (RB) of DUT was determined as described previously. […] The concentrations of DUT in the plasma sample were determined by the validated HPLC analysis.

[3] = Stability in rat plasma (QC samples); settings: n = 5; for Stability (percent drug remaining), Autosampler: 10 °C for 24 h in the autosampler; for Stability (percent drug remaining), Bench-Top: room temperature for 3 h; for Stability (percent drug remaining), Freeze-Thaw: three freezing and thawing cycles; for Stability (percent drug remaining), Long-Term: −20 °C for 30 days
Experimental: The bioanalytical method proposed herein for the simultaneous determination of DUT and H-DUT was fully validated on the basis of the US FDA guideline. The selectivity of the method was evaluated by comparing chromatograms of the analytes (DUT, H-DUT, and internal standard) in blank rat plasma, blank rat plasma spiked with the analytes, and rat plasma sample obtained from the in vivo rat pharmacokinetic study. Further, the existence of potential interferences at the acquisition windows of the analytes was checked. The linearity of the method was evaluated by adding increasing amounts of DUT and H-DUT to the blank plasma. To construct calibration curves (n = 5), the peak area ratios of DUT or H-DUT to the internal standard (y-axis) were plotted against the nominal concentration ratios of DUT or H-DUT (10–1000 ng/mL) to the internal standard (400 ng/mL) (x-axis), and then, linear regression analysis was performed. The sensitivity was assessed by estimating the LLOQ (signal-to-noise [S/N] ratio > 5). The peaks of the analytes at the LLOQ should be discrete, identifiable, and reproducible with acceptable precision (<20%) and accuracy (within 80–120%). The extraction recovery, matrix effect, dilution integrity, and stability (under bench-top, freeze–thaw, post-preparative, and long-term conditions) in addition to the intra-assay (five different samples) and inter-assay (five different runs) precision and accuracy for each analyte were determined at the LLOQ and three different QC levels as described in the US FDA guidelines and in previous studies.

SMILES: C[C@]12C=CC(=O)N[C@@H]1CC[C@@H]1[C@@H]2CC[C@]2(C)[C@@H](C(=O)Nc3cc(C(F)(F)F)ccc3C(F)(F)F)CC[C@@H]12 [DUT, Dutasteride]
- fraction of unbound DUT, presence versus absence of KET ([1]; DUT and KET 5 μM, n = 5): no significant differences
- fraction unbound at 5 μM ([1]; Sprague-Dawley, DUT 5 μM, RED device): 0.0115
- Vmax ([2]; DUT 1 to 100 μM, NADPH): 47.7 ± 6.3 pmol/min/mg protein
- Km ([2]; human, human liver microsomes, DUT 1 to 100 μM, NADPH): 51.6 ± 7.3 µM
- microsomal CLint ([2]; human, human liver microsomes, Vmax divided by Km): 0.928 ± 0.069 µL/min/mg
- Stability (percent drug remaining), Autosampler ([3]; HQC 750 ng/mL): 102 ± 2%
- Stability (percent drug remaining), Bench-Top ([3]; HQC 750 ng/mL): 102 ± 0%
- Stability (percent drug remaining), Freeze-Thaw ([3]; HQC 750 ng/mL): 100 ± 0%
- Stability (percent drug remaining), Long-Term ([3]; HQC 750 ng/mL): 105 ±1%
- Stability (percent drug remaining), Autosampler ([3]; LLOQ 10 ng/mL): 103 ± 8%
- Stability (percent drug remaining), Bench-Top ([3]; LLOQ 10 ng/mL): 108 ± 1%
- Stability (percent drug remaining), Freeze-Thaw ([3]; LLOQ 10 ng/mL): 99.3 ± 4.7%
- Stability (percent drug remaining), Long-Term ([3]; LLOQ 10 ng/mL): 105 ± 5%
- Stability (percent drug remaining), Autosampler ([3]; LQC 30 ng/mL): 103 ± 1%
- Stability (percent drug remaining), Bench-Top ([3]; LQC 30 ng/mL): 105 ± 6%
- Stability (percent drug remaining), Freeze-Thaw ([3]; LQC 30 ng/mL): 99.7 ± 2.7%
- Stability (percent drug remaining), Long-Term ([3]; LQC 30 ng/mL): 102 ± 4%
- Stability (percent drug remaining), Autosampler ([3]; MQC 150 ng/mL): 104 ± 2%
- Stability (percent drug remaining), Bench-Top ([3]; MQC 150 ng/mL): 103 ± 1%
- Stability (percent drug remaining), Freeze-Thaw ([3]; MQC 150 ng/mL): 106 ± 2%
- Stability (percent drug remaining), Long-Term ([3]; MQC 150 ng/mL): 100 ± 1%
